Test results published in ChEMBL document CHEMBL1201862, “PubChem BioAssay data set” (2004).
Calls of active or inactive are those of the source.

How the values were obtained:
[1] = M. tuberculosis H37Rv growth inhibitors, H37Rv strain (AID 1626); format: functional
Estrogen receptor beta [2] = target: T1, Estrogen receptor beta (Homo sapiens, UniProt Q92731); test: ERβ–SRC-3 coactivator interaction inhibitors, confirmation, orthogonal assay, biochemical, ELISA, streptavidin-HRP readout (AID 1060)
T1 sequence (Q92731 whole entry): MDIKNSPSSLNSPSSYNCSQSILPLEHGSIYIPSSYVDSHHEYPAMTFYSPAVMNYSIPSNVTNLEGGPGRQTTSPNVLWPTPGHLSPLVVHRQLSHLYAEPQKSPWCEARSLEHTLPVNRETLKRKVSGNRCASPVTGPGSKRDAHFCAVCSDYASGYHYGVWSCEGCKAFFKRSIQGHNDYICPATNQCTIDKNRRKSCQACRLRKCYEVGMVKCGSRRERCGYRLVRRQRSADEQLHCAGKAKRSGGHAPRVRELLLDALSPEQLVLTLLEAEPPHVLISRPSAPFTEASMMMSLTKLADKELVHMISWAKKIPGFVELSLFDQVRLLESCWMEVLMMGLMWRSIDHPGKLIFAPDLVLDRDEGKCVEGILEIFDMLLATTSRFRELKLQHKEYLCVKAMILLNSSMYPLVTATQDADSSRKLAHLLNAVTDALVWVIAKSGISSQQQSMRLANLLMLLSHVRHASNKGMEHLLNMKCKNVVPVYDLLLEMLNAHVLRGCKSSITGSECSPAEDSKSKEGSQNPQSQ

Estrogen receptor beta [3] = target: T1, Estrogen receptor beta
Nonstructural protein 1 = Nonstructural protein 1 (Influenza A virus, UniProt Q194T2); format: functional, Influenza A virus (A/California/07/2009(H1N1))
Nonstructural protein 1, sequence (Q194T2 whole entry): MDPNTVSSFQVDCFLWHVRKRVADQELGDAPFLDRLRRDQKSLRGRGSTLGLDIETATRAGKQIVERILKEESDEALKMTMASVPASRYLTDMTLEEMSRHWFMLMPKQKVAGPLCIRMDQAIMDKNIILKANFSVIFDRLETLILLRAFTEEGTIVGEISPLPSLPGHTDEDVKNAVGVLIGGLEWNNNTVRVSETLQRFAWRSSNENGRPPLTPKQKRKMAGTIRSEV

[4] = target: T2, Ubiquitin-conjugating enzyme E2 N (Homo sapiens, UniProt P61088); format: functional
T2 sequence (P61088 whole entry): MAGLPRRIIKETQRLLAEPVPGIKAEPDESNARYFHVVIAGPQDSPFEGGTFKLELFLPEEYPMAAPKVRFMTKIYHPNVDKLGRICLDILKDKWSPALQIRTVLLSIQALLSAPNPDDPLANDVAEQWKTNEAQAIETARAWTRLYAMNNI

Bcl-2-related protein A1 = target: T3, Bcl-2-related protein A1 (Mus musculus, UniProt Q07440); format: functional;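 further: confirmatory dose–response counterscreen on Bfl-1, used to check hits from a UBC13 polyubiquitin inhibitor campaign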
T3 sequence (Q07440 whole entry): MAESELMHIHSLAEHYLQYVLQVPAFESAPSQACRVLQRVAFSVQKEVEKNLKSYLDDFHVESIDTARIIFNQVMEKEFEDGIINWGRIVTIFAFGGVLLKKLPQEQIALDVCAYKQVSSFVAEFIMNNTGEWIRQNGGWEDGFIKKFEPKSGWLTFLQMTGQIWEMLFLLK

[5] = target: T2, Ubiquitin-conjugating enzyme E2 N; format: functional; remark: listed apart in the source
Estrogen receptor = target: T4, Estrogen receptor (Homo sapiens, UniProt P03372);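 further: potency for inhibiting coactivator peptide recruitment to the receptor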
T4 sequence (P03372 whole entry): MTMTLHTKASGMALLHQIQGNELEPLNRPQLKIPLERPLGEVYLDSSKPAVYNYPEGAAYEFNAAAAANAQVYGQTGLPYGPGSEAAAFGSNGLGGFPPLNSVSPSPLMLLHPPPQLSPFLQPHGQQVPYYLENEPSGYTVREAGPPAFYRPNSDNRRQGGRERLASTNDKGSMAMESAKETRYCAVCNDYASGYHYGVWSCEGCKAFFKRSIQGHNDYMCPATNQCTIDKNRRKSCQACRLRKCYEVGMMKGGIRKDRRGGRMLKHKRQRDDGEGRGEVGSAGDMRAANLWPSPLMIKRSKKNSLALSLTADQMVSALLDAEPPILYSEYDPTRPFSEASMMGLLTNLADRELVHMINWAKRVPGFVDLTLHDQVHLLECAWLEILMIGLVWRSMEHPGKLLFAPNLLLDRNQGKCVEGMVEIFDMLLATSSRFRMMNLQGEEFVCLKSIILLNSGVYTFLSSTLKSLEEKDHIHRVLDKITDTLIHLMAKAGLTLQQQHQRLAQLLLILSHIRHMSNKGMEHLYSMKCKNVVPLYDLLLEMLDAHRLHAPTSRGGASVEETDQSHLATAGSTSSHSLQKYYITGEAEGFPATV

[6] = target: T5, Alkaline phosphatase, tissue-nonspecific isozyme (Homo sapiens, UniProt P05186); test: human TNAP enzyme inhibitors, SAR follow-up, biochemical, luminescent, dose response (AID 1056)
T5 sequence (P05186 whole entry): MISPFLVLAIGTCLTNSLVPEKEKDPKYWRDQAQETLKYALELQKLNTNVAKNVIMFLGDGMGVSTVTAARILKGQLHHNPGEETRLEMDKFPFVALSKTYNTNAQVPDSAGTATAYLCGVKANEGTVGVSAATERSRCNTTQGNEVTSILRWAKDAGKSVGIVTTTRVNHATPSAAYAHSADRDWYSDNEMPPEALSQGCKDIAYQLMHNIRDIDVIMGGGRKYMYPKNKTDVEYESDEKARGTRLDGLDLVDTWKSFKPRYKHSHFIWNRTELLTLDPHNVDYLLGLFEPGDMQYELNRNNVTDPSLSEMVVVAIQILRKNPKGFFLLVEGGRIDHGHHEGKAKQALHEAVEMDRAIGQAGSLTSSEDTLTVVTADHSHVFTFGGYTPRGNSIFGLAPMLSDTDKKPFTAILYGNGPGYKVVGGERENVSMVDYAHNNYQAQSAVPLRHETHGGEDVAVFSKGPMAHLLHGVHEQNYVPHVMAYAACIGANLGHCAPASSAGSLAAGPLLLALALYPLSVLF

[7] = target: Glyceraldehyde-3-phosphate dehydrogenase (Homo sapiens, UniProt P04406)
Glyceraldehyde-3-phosphate dehydrogenase, sequence (P04406 whole entry): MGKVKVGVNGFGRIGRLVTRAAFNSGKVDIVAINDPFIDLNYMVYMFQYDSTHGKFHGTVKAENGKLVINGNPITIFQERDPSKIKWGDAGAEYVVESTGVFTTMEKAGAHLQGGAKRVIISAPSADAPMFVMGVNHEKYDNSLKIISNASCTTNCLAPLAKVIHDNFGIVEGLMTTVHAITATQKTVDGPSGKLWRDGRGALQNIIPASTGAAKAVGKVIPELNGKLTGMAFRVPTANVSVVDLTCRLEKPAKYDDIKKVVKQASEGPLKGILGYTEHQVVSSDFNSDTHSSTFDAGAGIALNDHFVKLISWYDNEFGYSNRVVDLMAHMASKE

Vero [8] = test: cells; format: functional; conditions: Chlorocebus sabaeus
Vero [9] = test: cells; format: functional, cell-based; conditions: Chlorocebus sabaeus
[10] = system: Streptococcus sp. 'group A'; test: growth inhibition of control SK(-) GAS strain, dose response, counter-screen for streptokinase expression inhibitor project, luminescence, kanamycin, BacTiterGlo, confirmation (AID 1900); format: functional, organism-based
Streptococcus = test: Group A Streptococcus viability loss, dose response, counter-screen for streptokinase expression inhibitor project, luminescence, BacTiterGlo (AID 1915); format: functional, organism-based;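 further: potency for reduction of bacterial viability or growth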
[11] = target: T6, Short transient receptor potential channel 4 (Mus musculus, UniProt Q9QUQ5); test: mouse TRPC4 channel activators, dose response, cell-based, HEK293 TRPC4/mu-opioid, Fluo-4 calcium (AID 434937); format: functional
T6 sequence (Q9QUQ5 whole entry): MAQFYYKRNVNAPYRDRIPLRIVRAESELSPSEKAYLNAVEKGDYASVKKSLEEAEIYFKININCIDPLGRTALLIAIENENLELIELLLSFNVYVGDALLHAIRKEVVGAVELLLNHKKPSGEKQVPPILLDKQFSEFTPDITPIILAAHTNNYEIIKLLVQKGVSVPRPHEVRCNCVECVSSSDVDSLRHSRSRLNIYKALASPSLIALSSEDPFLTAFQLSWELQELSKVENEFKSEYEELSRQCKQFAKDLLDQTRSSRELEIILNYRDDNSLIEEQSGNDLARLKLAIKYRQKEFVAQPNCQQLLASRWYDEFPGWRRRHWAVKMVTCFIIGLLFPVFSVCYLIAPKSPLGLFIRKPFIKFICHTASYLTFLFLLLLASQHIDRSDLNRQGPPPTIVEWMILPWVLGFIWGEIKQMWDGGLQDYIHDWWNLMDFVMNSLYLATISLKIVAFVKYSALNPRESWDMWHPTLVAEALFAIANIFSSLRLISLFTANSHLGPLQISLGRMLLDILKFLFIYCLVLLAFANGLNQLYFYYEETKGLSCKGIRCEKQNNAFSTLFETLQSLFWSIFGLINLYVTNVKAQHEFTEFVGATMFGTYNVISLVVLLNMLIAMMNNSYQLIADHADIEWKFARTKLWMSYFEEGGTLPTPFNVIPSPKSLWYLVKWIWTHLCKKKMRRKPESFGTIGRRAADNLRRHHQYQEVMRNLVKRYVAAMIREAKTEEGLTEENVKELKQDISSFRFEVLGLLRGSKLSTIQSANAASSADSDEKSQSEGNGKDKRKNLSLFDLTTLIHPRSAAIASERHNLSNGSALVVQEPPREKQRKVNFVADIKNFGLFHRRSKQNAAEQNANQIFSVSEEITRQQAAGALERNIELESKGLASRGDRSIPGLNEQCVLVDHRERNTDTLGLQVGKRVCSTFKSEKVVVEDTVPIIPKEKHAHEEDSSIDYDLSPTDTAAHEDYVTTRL

H9c2 = test: cells; format: functional, cell-based; conditions: Rattus norvegicus, H9c2, Myocardium;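 further: confirmatory concentration-response retest of ultra-high-throughput screening hits for modulation of myocardial damage; cell death induced by hydrogen peroxide oxidative stress; compound pretreatment for 60 min then peroxide exposure for 2 h; potency is for protecting the cells against peroxide damage rather than for killing them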
[12] = inhibitors of firefly luciferase expression or activity, dose response, H4 neuroglioma cells, luminescence (AID 1990); format: functional, cell-based
[13] = C. albicans growth with fluconazole, confirmation, fluorescence, retest (AID 2467); format: functional, cell-based
[14] = Luminescence Cell-Based Dose Response HTS to Identify Inhibitors of 5'UTR Stem-Loop Driven Prion Protein mRNA Translation in H4 Neuroglioblastoma Cells. [Related pubchem assays: 1827 (Project Summary), 1813 (Primary HTS)]; format: functional
[15] = NIH-3T3 fibroblast cytotoxicity, dose response, cytotoxicity control, cell-based, fluorescence, Alamar Blue, secondary assay (AID 2327); format: functional;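 further: NIH-3T3 mouse fibroblasts cultured with fluconazole at 8 µg/mL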
[16] = target: T7, Mannose-6-phosphate isomerase (Homo sapiens, UniProt P34949); test: human PMI inhibitors, high substrate, primary screen, biochemical, fluorescence intensity, high mannose 6-phosphate (AID 1220)
T7 sequence (P34949 whole entry): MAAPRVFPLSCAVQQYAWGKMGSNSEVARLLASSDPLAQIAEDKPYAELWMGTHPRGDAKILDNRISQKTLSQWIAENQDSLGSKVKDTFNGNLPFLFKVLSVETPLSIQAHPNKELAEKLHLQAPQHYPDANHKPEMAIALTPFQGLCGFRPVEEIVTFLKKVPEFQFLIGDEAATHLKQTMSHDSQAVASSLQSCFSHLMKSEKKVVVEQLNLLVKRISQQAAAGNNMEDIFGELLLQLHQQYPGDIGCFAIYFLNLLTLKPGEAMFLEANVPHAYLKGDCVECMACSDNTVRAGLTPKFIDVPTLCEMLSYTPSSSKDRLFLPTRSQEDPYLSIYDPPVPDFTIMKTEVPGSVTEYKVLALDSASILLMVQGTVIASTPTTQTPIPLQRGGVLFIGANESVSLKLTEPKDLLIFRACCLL

[17] = target: Induced myeloid leukemia cell differentiation protein Mcl-1 (Homo sapiens, UniProt Q07820); format: functional
Induced myeloid leukemia cell differentiation protein Mcl-1, sequence (Q07820 whole entry): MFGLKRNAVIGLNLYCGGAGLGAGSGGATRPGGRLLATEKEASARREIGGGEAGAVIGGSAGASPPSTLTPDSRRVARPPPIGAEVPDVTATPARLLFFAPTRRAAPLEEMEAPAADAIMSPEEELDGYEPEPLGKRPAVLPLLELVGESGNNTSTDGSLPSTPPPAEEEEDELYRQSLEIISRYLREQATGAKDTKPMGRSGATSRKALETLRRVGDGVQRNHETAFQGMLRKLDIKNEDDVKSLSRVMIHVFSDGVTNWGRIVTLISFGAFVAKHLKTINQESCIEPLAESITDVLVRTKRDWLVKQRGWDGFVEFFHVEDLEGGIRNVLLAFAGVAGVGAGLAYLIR

cells [18] = format: functional, cell-based
[19] = inhibitors of SNCA 5'UTR-driven reporter translation, confirmation, H4 neuroglioma cells, luminescence (AID 1988); format: functional, cell-based
Genome polyprotein = Genome polyprotein (dengue virus type 2, UniProt P29990); test: Dengue-2 NS5 methyltransferase inhibitors, primary screen, biochemical, confirmation dose response (AID 588689); format: functional
Genome polyprotein, sequence (P29990 2492-3391 limits assumed): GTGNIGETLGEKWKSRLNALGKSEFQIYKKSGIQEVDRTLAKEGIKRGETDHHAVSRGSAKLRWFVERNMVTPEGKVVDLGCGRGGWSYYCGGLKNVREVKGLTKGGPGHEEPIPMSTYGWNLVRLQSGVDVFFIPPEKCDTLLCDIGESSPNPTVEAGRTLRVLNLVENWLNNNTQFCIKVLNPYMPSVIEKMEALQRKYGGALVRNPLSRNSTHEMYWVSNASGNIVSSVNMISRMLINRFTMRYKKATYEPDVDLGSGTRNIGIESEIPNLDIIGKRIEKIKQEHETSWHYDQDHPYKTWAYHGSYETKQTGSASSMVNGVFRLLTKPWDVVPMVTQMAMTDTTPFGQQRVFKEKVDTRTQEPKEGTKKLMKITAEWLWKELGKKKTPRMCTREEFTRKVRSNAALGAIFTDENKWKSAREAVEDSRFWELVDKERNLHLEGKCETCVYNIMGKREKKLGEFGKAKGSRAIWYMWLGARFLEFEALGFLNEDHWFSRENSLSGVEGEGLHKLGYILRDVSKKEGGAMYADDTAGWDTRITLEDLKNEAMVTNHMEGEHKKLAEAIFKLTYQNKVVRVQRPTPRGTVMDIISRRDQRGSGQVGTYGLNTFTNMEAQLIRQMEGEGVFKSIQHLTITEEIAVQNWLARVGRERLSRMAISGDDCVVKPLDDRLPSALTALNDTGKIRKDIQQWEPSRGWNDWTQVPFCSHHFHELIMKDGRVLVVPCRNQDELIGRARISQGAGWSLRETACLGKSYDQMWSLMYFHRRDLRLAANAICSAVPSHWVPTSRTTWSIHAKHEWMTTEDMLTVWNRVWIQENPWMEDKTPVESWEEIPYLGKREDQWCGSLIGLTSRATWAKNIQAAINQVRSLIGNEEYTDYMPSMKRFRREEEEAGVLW

Vero [20] = test: Vero cell cytotoxicity, cytotoxicity control for flavivirus capping enzyme inhibitors (AID 588742); format: functional; conditions: Chlorocebus sabaeus
cells [21] = format: functional, cell-based; remark: listed apart in the source
[22] = THP-1 cell cytotoxicity, dose response, cytotoxicity control for Vif-APOBEC3G degradation inhibitor project, THP-1 cells (AID 1117359); format: functional; conditions: Human immunodeficiency virus 1, THP-1

Cc1ccc(NC(=O)C2CCCCC2C(=O)O)cc1Cl (stereo not given)
IC50 [1]: > 100 µM (active)

O=C(/C=C/Nc1ccc(Oc2ccccc2Cl)cc1)c1ccco1
IC50 [1]: > 100 µM (active)

O=C(Cn1nnc(-c2ccc3c(c2)OCO3)n1)NCc1ccco1
IC50 (Estrogen receptor beta [2]): 3 µM (not active)
IC50 (Estrogen receptor beta [3]): 19.6 µM (active)

Oc1cc(Nc2ccncc2)cc2cccnc12
IC50 (Nonstructural protein 1): 5.11 µM (active)
IC50 [4]: 6.9 µM (active)
IC50 (Bcl-2-related protein A1): > 20 µM (inactive)
IC50 [5]: 8.54 µM (active)

COc1ccc(CCNC(=O)c2ccc(CN3CCC(Cc4ccccc4)CC3)cc2)cc1
IC50 [1]: > 100 µM (active)

O=C1c2cccc3cccc(c23)N1Cc1ccc(F)cc1
IC50 [4]: 5.15 µM (active)
IC50 (Bcl-2-related protein A1): > 20 µM (inactive)
IC50 [5]: 6.78 µM (active)

COc1cc(C2C(C#N)=C(N)Oc3cc(C)oc(=O)c32)cc2c1OCO2 (stereo not given)
IC50 (Estrogen receptor beta [2]): 9.24 µM (not active)
IC50 (Estrogen receptor): 26.2 µM (active)
IC50 (Estrogen receptor beta [3]): 13.6 µM (active)

COc1ccc(S(=O)(=O)n2cc(C(N)=O)c3ccccc32)cc1
IC50 [6]: > 100 µM (inactive)
IC50 [7]: > 100 µM (not active)

COc1ccc(OCc2nn3c(-c4cccc(OC)c4)nnc3s2)cc1
IC50 [1]: > 100 µM (active)

Cn1c(C(=O)Nc2ccc3c(c2)OCO3)cc2c(=O)n(C)c3ccccc3c21
IC50 (Estrogen receptor beta [2]): 0.0468 µM (not active)
IC50 (Estrogen receptor): 22.6 µM (active)
IC50 (Estrogen receptor beta [3]): > 50 µM (not active)

CCCOc1ccc(C(=O)NC(=S)NNC(=O)c2c(-c3ccccc3)noc2C)cc1
CC50 (Vero [8]): 12.1 µM (active)
IC50 (Vero [9]): > 25 µM (active)
EC50 [10]: 0.137 µM (active)
EC50 (Streptococcus): 0.596 µM (active)
EC50 [11]: 2.66 µM (active)

CN(Cc1ccccc1)C(=O)COC(=O)c1cc(-c2ccc(Cl)s2)nc2ccccc12
IC50 [4]: > 20 µM (inactive)
IC50 (Bcl-2-related protein A1): > 20 µM (inactive)
IC50 [5]: 11.8 µM (active)

O=S(=O)(Nc1ccc2ncccc2c1)c1ccccc1OC(F)(F)F
IC50 [6]: > 100 µM (inactive)
IC50 [7]: > 100 µM (not active)

COc1ccc(Cl)cc1C(=O)Nc1ccccc1N1CCN(C)CC1
EC50 [11]: 5.96 µM (active)

CCOC(=O)C1=C(COC(=O)c2cc(OC)c(OC)c(OC)c2)NC(=O)NC1C (stereo not given)
IC50 [4]: 8.55 µM (active)
IC50 (H9c2): 11.2 µM (active)
IC50 (Bcl-2-related protein A1): > 20 µM (inactive)
IC50 [5]: 6.85 µM (active)

Cc1cc(SCC(=O)N/N=C/c2ccc(O)c(O)c2O)c(C)cc1Br
EC50 [12]: 11 µM (active)
EC50 [13]: 1.45 µM (active)
EC50 [14]: 13.9 µM (active)
EC50 [15]: > 150 µM (inconclusive)
IC50 [16]: > 50 µM (not active)
IC50 [17]: 5.65 µM (active)
EC50 [10]: 3.27 µM (active)
EC50 (cells [18]): > 350 µM (not active)
EC50 (Streptococcus): 6.34 µM (active)
EC50 [19]: 26.7 µM (active)
IC50 (Genome polyprotein): 17.4 µM (active)
CC50 (Vero [20]): > 40 µM (active)
EC50 (cells [21]): 11.6 µM (active)
CC50 [22]: 2.57 µM (active)
